From US20220265614A1, “TREATMENT COMPRISING FXR AGONISTS” (Novartis AG, priority 2019, published 2022)

Legend:
human hepatocytes = experiment: In vitro human hepatocytes treated with FXR agonists: LDL uptake; type: cell-based; conditions: FIG. 5
Description: In addition, FXR agonist treatments have been associated with lipid abnormalities, including increases in peripheral LDL (Neuschwander-Tetri et al, The Lancet 2015; 385: 956-965). The reduction of the bile acid pathway by FXR agonists could lead to intracytoplasmic increase in cholesterol in the hepatocytes. Increase cholesterol in hepatocytes is associated with a counter mechanism of decrease LDL receptor on the surface of the cells (Goldstein et al Circulation. 1987 September;76(3):504-7). Such a decrease in the LDL receptor on the surface of the hepatocytes will ultimately result in an increase in circulating LDL; the phenotype observed in the clinics. […] To mitigate the increase in circulating LDL, it is proposed to administer a FXR agonist to the subjects in need thereof in the evening (e.g. from about 6 pm to about 12 pm, preferably from about 8 pm to about 11 pm, preferably around 9 pm) to reduce the impact of the FXR agonist on circulating LDL.
To mitigate the increase in peripheric LDL, we hypothesize that treating the subjects in the evening (from about 6 pm to about 12 pm, e.g. from about 8 pm to about 11 pm, preferably around 9 pm) would be reduce the impact of the drug on LDL. […]

[1] = test system: patients with biopsy-proven NASH and fibrosis stages 2-3; experiment: FLIGHT-FXR (NCT02855164) Part C interim analysis at week 12; type: in vivo, human
Description: Prespecified endpoints assessed at week 12 included overall safety and changes in alanine aminotransferase (ALT), hepatic fat fraction (HFF), gamma glutamyl transferase (GGT), and body weight.

NASH patients [2] = experiment: Parts A and B of study CLJN452A2202 in NASH patients, 12 weeks
NASH patients [3] = conditions: cited from earlier work
[4] = higher doses (140 μg, 200 μg), after 12 weeks of treatment
[5] = all doses (10, 30, 60 and 90 μg), 12 weeks

In the case of `O=C(O)c1ccnc(N2CC(O)(c3ccc(OCc4c(-c5c(Cl)cccc5Cl)noc4C4CC4)cc3Cl)C2)c1` [cilofexor], the “LDL uptake by hepatocytes” value (human hepatocytes) is reported as “reduce the LDL uptake by hepatocytes in a dose dependent manner”.
For `O=C(O)c1cc(F)c2nc(N3C4CCC3CC(OCc3c(-c5ccccc5OC(F)(F)F)noc3C3CC3)C4)sc2c1` [Tropifexor, 2-[(1R,3r,5S)-3-({5-cyclopropyl-3-[2-(trifluoromethoxy)phenyl]-1,2-oxazol-4-yl}methoxy)-8-azabicyclo[3.2.1]octan-8-yl]-4-fluoro-1,3-benzothiazole-6-carboxylic acid], the “lipid changes that led to treatment discontinuation or dose reduction” value ([1]; 140 μg and 200 μg, 12 weeks) was “None”, the “low density lipoprotein-cholesterol (LDL-C)” value ([1]; 140 μg and 200 μg, 12 weeks) was “dose-related increase” and the “LS mean absolute change (SE) in ALT from baseline to Week 12” value ([1]; 140 μg once daily, N = 50) was −20.1 (4.57) U/L. For the same compound, the “LS mean absolute change (SE) in GGT from baseline to Week 12” value ([1]; 140 μg once daily, N = 50) was −39.2 (3.70) U/L, the “LS mean absolute change (SE) in body weight from baseline to Week 12” value ([1]; 140 μg once daily, N = 50) was −2.46 (0.38) kg and the “frequency of serious adverse events” value ([1]; 140 μg, 200 μg and placebo groups) was “low and comparable across groups”. The “treatment discontinuation rate due to pruritus” value ([1]; 140 μg, n=1) was 2%, the “prespecified endpoints at week 12” value ([1]; 200 μg) was “met” and the “LS mean absolute change (SE) in ALT from baseline to Week 12” value ([1]; 200 μg once daily, N = 51) was −23.6 (4.48) U/L. For the same compound, the “LS mean absolute change (SE) in GGT from baseline to Week 12” value ([1]; 200 μg once daily, N = 51) was −40.9 (3.62) U/L, the “LS mean absolute change (SE) in body weight from baseline to Week 12” value ([1]; 200 μg once daily, N = 51) was −3.20 (0.37) kg and the “treatment discontinuation rate due to pruritus” value ([1]; 200 μg, n=3) was 6%. For the same compound, the “patients with pruritus whose events were of mild (Grade 1) severity” value ([1]; both Tropifexor groups (140 μg, 200 μg)) was over 60%, the “ALT, HFF, and body weight” value [1, 4] was “robust and dose-dependent decreases” and the safety and tolerability [1, 4] was “good safety and tolerability”. The “biologic activity (GGT)” value (NASH patients [2]; 10 to 90 μg daily for 12 weeks) was “clear dose response”, the “target engagement (FGF19)” value (NASH patients [2]; 10 to 90 μg daily for 12 weeks) was “clear dose response” and the “efficacy based on biomarkers” value (NASH patients [2]; 60 and 90 μg, Week 12) was “anti-inflammatory and anti-steatotic efficacy”. The “ALT compared to placebo” value (NASH patients [2]; [5]) was “reduced”, the “hepatic fat fraction compared to placebo” value (NASH patients [2]; [5]) was “reduced” and the tolerability (NASH patients [2]; up to 90 μg daily) was “generally well tolerated”.
In the case of `CC[C@H]1[C@@H](O)[C@@H]2[C@H](CC[C@]3(C)[C@@H]([C@H](C)CCC(=O)O)CC[C@@H]23)[C@@]2(C)CC[C@@H](O)C[C@@H]12` [obeticholic acid, 6α-ethyl-chenodeoxycholic acid], the “LDL uptake by hepatocytes” value (human hepatocytes) is given as “reduce the LDL uptake by hepatocytes in a dose dependent manner”, the “adverse effects of long term administration: pruritus” value (NASH patients [3]) is given as “most common adverse effect” and the “lipid abnormalities: low density lipoprotein (LDL) cholesterol” value (NASH patients [3]; long term administration) is given as “increased”.
